# Legend:
# [1] = Thermal profile / melt event of the free base and its salts; type: physicochemical; conditions: solid form
# Description: (§1) The advantageous properties of salts according to the invention can be seen from the table below:
# (§2) The salts were all obtained in good yields.
# [2] = Hygroscopicity of the free base and its salts; type: physicochemical; conditions: solid form
# Description: as §1, §2
# [3] = rat model; Lu et al. 2005, Xie et al. 2005; cited from earlier work
# [4] = Norbury et al. 1983; cited from earlier work
# [5] = Balikova et al. 2001; cited from earlier work
# [6] = listed as maleic acid addition salt
compound,measurement,setting,value
"CCC1(c2cccc(OC(=O)Nc3ccc(C(=O)O)cc3)c2)CCCCN(C)C1 (stereo not drawn) [meptazinol p-amino-benzoylcarbamate, Meptazinol para-amino benzoic acid carbamate]",Good thermal profile with clean melt event,[1],no
same,Hygroscopic,[2],yes
same,Hygroscopic,[2]; listed as meptazinol p-amino-benzoic acid carbamate,very hygroscopic
CCC1(c2cccc(OC(=O)Nc3ccc(C(=O)O)cc3)c2)CCCCN(C)C1.O=C(O)/C=C\C(=O)O (stereo not drawn) [Meptazinol PABA Carbamate Maleic Acid Addition Salt],Good thermal profile with clean melt event,[1],yes
same,Good thermal profile with clean melt event,[1]; [6],good thermal profiles with clean melt events
same,Hygroscopic,[2],no
same,Hygroscopic,[2]; [6],not be hygroscopic
CCC1(c2cccc(OC(=O)Nc3ccc(C(=O)O)cc3)c2)CCCCN(C)C1.Cl (stereo not drawn) [meptazinol p-amino-benzoylcarbamate•HCl],Good thermal profile with clean melt event,[1],no
same,Hygroscopic,[2],yes
CCC1(c2cccc(OC(=O)Nc3ccc(C(=O)O)cc3)c2)CCCCN(C)C1.O=C(O)CC(=O)O (stereo not drawn) [Meptazinol PABA Carbamate Malonic Acid Addition Salt],Good thermal profile with clean melt event,[1],yes
same,Good thermal profile with clean melt event,[1]; listed as malonic acid addition salt,good thermal profiles with clean melt events
same,Hygroscopic,[2],not be hygroscopic and no
(Z)-3-[2-(propionyloxy)phenyl]-2-propenoic ester,bioavailability over meptazinol itself,[3],significant increase
CCC1(c2cccc(OC(=O)Nc3ccc(C(=O)O)cc3)c2)CCCCN(C)C1.CS(=O)(=O)O (stereo not drawn) [Meptazinol PABA Carbamate Methanesulphonic Acid Addition Salt],Good thermal profile with clean melt event,[1],yes
same,Good thermal profile with clean melt event,[1]; listed as methanesulphonic acid addition salt,good thermal profiles with clean melt events
same,Hygroscopic,[2],not be hygroscopic and no
CCC1(c2cccc(OC(=O)Nc3ccc(C(=O)O)cc3)c2)CCCCN(C)C1.O=S(=O)(O)O (stereo not drawn) [Meptazinol PABA Carbamate Sulphuric Acid Addition Salt],Good thermal profile with clean melt event,[1],yes
same,Good thermal profile with clean melt event,[1]; listed as sulphuric acid addition salt,good thermal profiles with clean melt events
same,Hygroscopic,[2],not be hygroscopic and no
CCC1(c2cccc(O)c2)CCCCN(C)C1 (stereo not drawn) [Meptazinol],oral bioavailability,[4],< 10%
CCC1(c2cccc(OC(=O)Nc3ccc(C(=O)O)cc3)c2)CCCCN(C)C1.O=P(O)(O)O (stereo not drawn) [Meptazinol PABA Carbamate Phosphoric Acid Addition Salt],Good thermal profile with clean melt event,[1],no
same,Hygroscopic,[2],no
same,Hygroscopic,[2]; listed as phosphoric acid addition salt,not be hygroscopic
COc1ccc2c3c1O[C@H]1[C@@H](O)CC[C@H]4[C@@H](C2)N(C)CC[C@@]341 [dihydrocodeine],share of an oral dose converted to dihydromorphine,[5],less than 2%

# — patent publication US20120165315A1, “[…] PRODRUG SALTS” (priority 2010, published 2012)
